Results on 5 molecules are retold here after patent publication US20160088853A1, “Ultraviolet Disinfection of Produce, Liquids and Surfaces” (DREXEL UNIVERSITY, priority 2013, published 2016).

Like-named read-outs stand apart in the source and are kept apart here. Bounds are passed on as bounds.

Data set [1] deals with bacterial and fungal strains. The conditions noted are these: riboflavin with UV 365 nm, artificial surface; cited from earlier work.
For data set [2] the following is noted: for fluorescence decay rate constant: 1 μM fluorescein, UV; for change in relative fluorescence intensity: 12 minutes of UV exposure. Here is the method: In this example, fluorescein dye was used to detect the presence of free radicals, since interactions of oxidizing free radicals with fluorescein quench the fluorescence signal intensity. A fluorescein dye solution (4 μg/L) containing 0.4% (w/v) fructose and a fluorescein dye solution (4 μg/L) without fructose (control) were exposed to UV radiation at wavelength of 254 nm.
A batch-UV processing unit (Spectronics Spectrolinker XL-1500 UV Crosslinker, Westbury, N.Y.) was used for Examples 5-10. The apparatus consisted of 5 UV lamps (254 nm, 15 W, Spectronics Corporation, Westbury, N.Y.) that generated a UV intensity of approximately 20 mW/cm^2 at the surface of exposure mounted within a shielded box (46.4×15.9×31.8 cm). Fluorescence intensity measurement noise was minimized by allowing the lamps to warm up for at least 15 minutes prior to taking measurements.
The test fluorescein solution with approximately 1 μM fluorescein was prepared in deionized water (pH 6.3) or 100 mM buffer at pH 6. […] Specifically, treatments were carried out by adding a 10.0 ml solution into an uncovered glass petri dish and exposing it to UV radiation for various amounts of time (0-12 minutes) in the UV processing unit. The samples in the petri dish were stirred to achieve uniform exposure to UV light. Ambient room temperature (20-22° C.) was used for the treatments. To measure the fluorescence intensity of the solution, at each time interval, 100 μl of the sample was pipetted from the petri dish into a well of a 96-well plate optimized for fluorescence measurement. Fluorescence was measured in a Gemini XPS fluorescence micro-plate reader (Molecular Devices, Sunnyvale, Calif.) with excitation and emission wavelengths of 485 nm and 510 nm, respectively. All the fluorescence values were normalized using Eq. (1):
where I0=fluorescence intensity at time t=0 minutes and It=fluorescence intensity after ‘t’ minutes of UV exposure.

Data set [3] is described as follows: Solution absorbance at 254 nm. It counts as physicochemical.
The conditions of data set [4]: in the presence of fructose, model apple juice system; cited from earlier work.
Data set [5] has as its system E. coli BL-21. The experiment in a line: UV inactivation of E. coli BL-21 suspension, plate count. It counts as cell-based. The conditions noted are these: 1% (w/v) gallic acid, UV 10 seconds, 109 CFU/mL in phosphate buffer, FIG. 6. Here is the method: E. coli BL-21 was suspended in phosphate buffer at the level of 10^9 CFU/mL. Gallic acid was incorporated into bacterial suspension at the level of 1% (w/v). This suspension was exposed to UV light (intensity of 4 mJ/cm^2) for 10 seconds. The control experiment was performed in the exact same manner except for addition of gallic acid. After UV treatment, the cells were separated from the buffer through centrifugation and bacterial inactivation was measured using a plate count technique.

Data set [6] relates to E. coli 0157:H7. The conditions noted are these: in lettuce; cited from earlier work.

For `Cc1cc2nc3c(=O)[nH]c(=O)nc-3n(C[C@H](O)[C@H](O)[C@H](O)CO)c2cc1C` [Riboflavin], in data set [1], the “inactivation of bacterial and fungal strains” value is “effective in inactivating most of the bacterial and fungal strains”.

On to `O=C(CO)[C@@H](O)[C@H](O)[C@H](O)CO` [fructose], for which the “fluorescence decay rate constant” value came to 0.16 ± 0.01 min⁻¹ in data set [2] (10 mM fructose); 0.27 ± 0.02 min⁻¹ in data set [2] (20 mM fructose); 0.91 ± 0.02 min⁻¹ in data set [2] (100 mM fructose); 2.1 ± 0.06 min⁻¹ in data set [2] (300 mM fructose); 2.4 ± 0.13 min⁻¹ in data set [2] (500 mM fructose). Moreover, the fluorescence lost result in data set [2] (500 mM fructose, within 2 minutes of UV exposure, FIG. 10A) is “more than 90%”. Also, the “average absorbance at 254 nm” value in data set [3] (500 mM solution) came out at 0.12. Further, in data set [4], the “UV induced rate of degradation of patulin” value is given as “increased”.

Take `c1ccoc1` [furan, reference compound]: the “change in relative fluorescence intensity” value in data set [2] (33 μM furan) and in data set [2] (66 μM furan) was under 20% each time. For the same molecule, the “average absorbance at 254 nm” value in data set [3] (132 μM) is “less than 0.001”.

As to `O=C(O)c1cc(O)c(O)c(O)c1` [gallic acid, 3,4,5-trihydroxybenzoic acid], in data set [5], the “microbial count after exposure to UV light” value is on record as “undetectable”.

Take Acidified sodium chlorite: the “reduction of E. coli 0157:H7” value in data set [6] is on record as at most 5 log.
